This is an account of results in PubChem BioAssay (NCI).

Among the test systems are A498 renal; BT-549 breast; HS 578T breast; K-562 leukemia; M14 melanoma; MDA-MB-435; NCI-H23 lung; SK-OV-3 ovarian; UACC-257 melanoma; HOP-92 NSCLC.
Holding throughout (assay): NCI anticancer screen, dose series, 48 h

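Step 1: Grow cells in 96-well plates. Step 2: Expose to compound for 48 hours at 5 concentrations. Step 3: Interpolate endpoints linearly; if unreached, use highest concentration. GI50 is the concentration that inhibits growth by half. Definition used: TGI = concentration required for complete inhibition of growth.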

Take `O=[N+]([O-])c1cc2c(c([N+](=O)[O-])c1)Nc1ccccc1O2`: the GI50 is 1.73 µM with A498 renal; 7.58 µM in the test with BT-549 breast; 7.22 µM with HS 578T breast; 4.64 µM with K-562 leukemia; 11.5 µM in the test on M14 melanoma; 8 µM with MDA-MB-435. Also, the GI50 in the test on NCI-H23 lung was 2.78 µM; in the test with SK-OV-3 ovarian it was 15.2 µM; with UACC-257 melanoma, 3.74 µM. In addition, the TGI in the test on A498 renal is 9.34 µM; in the test on BT-549 breast, 60.8 µM; in the test on HS 578T breast, above 100 µM; in the test with K-562 leukemia, above 100 µM; in the test on M14 melanoma it was above 100 µM; in the test on MDA-MB-435, above 100 µM. Moreover, the TGI in the test with NCI-H23 lung turned out to be 87.2 µM; in the test with SK-OV-3 ovarian, 58.6 µM; in the test with UACC-257 melanoma it was 39.1 µM.
On to `Cc1cc2nc(C(Cl)Cl)nc(-c3ccccc3)n2n1`, for which the GI50 in the test with A498 renal is 2.6 µM; in the test on BT-549 breast, 17.4 µM; with HOP-92 NSCLC it was 2.43 µM; in the test with HS 578T breast, 2.65 µM; in the test on K-562 leukemia, 4.61 µM; in the test on MDA-MB-435, 5.84 µM. The GI50 was 3.06 µM in the test with NCI-H23 lung, 3.34 µM in the test with SK-OV-3 ovarian and 7.35 µM in the test on UACC-257 melanoma. Besides, the TGI in the test with A498 renal is 11.2 µM; in the test on BT-549 breast, above 100 µM; in the test with HOP-92 NSCLC, 12.2 µM; in the test on HS 578T breast, 14.5 µM; with K-562 leukemia, above 100 µM; in the test on MDA-MB-435, 23.9 µM. The results for the TGI with NCI-H23 lung, with SK-OV-3 ovarian and with UACC-257 melanoma were 10.9 µM, 21.5 µM and 34.2 µM, respectively.
As to `CSC1(CC(=O)N2CCCCC2)C(=O)Nc2ccccc21` (configuration not stated), the TGI with A498 renal, in the test with BT-549 breast, in the test on HS 578T breast, in the test with K-562 leukemia, in the test on M14 melanoma and in the test on MDA-MB-435 was above 100 µM each time. Also, the TGI in the test on NCI-H23 lung, in the test with SK-OV-3 ovarian and with UACC-257 melanoma was above 100 µM in each case.
For the compound `COc1ccc(C2CC(=O)c3c(O)c(OC)c(OC)c(OC)c3O2)cc1O` (configuration not stated), the GI50 in the test on A498 renal is 2.34 µM; with BT-549 breast, 0.0745 µM; with HOP-92 NSCLC, 0.518 µM; in the test with HS 578T breast it was 0.0498 µM; in the test with K-562 leukemia, 0.0365 µM; in the test on M14 melanoma, 0.0515 µM. Further, the results for the GI50 in the test on NCI-H23 lung and with SK-OV-3 ovarian were 0.547 µM and 0.371 µM, respectively. Moreover, the TGI was 33.2 µM in the test with A498 renal; 31.2 µM in the test with BT-549 breast; 82.4 µM in the test on HOP-92 NSCLC; above 100 µM in the test with HS 578T breast; above 100 µM in the test with K-562 leukemia; above 100 µM with M14 melanoma. Also, the TGI in the test on NCI-H23 lung and with SK-OV-3 ovarian was above 100 µM throughout.
On to `CC(C)c1ccc2nc3ccc(C(=O)NCCN4CCN(c5ccccc5)CC4)cn3c(=O)c2c1`, for which the TGI in the test with A498 renal, with BT-549 breast, in the test on HS 578T breast, in the test with K-562 leukemia, with M14 melanoma and with NCI-H23 lung was above 100 µM each time. The TGI in the test on SK-OV-3 ovarian and in the test on UACC-257 melanoma was above 100 µM each time.
Consider `CCOC(=O)N1C=CC(=C2C(=C3C=CN(C(=O)OCC)C=C3)C(=C3C=CN(C(=O)OCC)C=C3)C2=C2C=CN(C(=O)OCC)C=C2)C=C1`, for which the TGI in the test with BT-549 breast was above 100 µM; in the test with HOP-92 NSCLC, 33.9 µM; in the test on HS 578T breast, 85.6 µM; with K-562 leukemia it was 71.4 µM; with M14 melanoma, above 100 µM; with MDA-MB-435, 98.8 µM. Moreover, the TGI in the test on NCI-H23 lung, in the test with SK-OV-3 ovarian and with UACC-257 melanoma was above 100 µM each time.
Turning to `COc1ccc2c(c1)C(=O)c1c-2c(NCCN(C)C)nc2ccccc12`, the GI50 in the test with A498 renal is 11.3 µM; in the test with BT-549 breast, 5.99 µM; in the test with HOP-92 NSCLC, 0.0658 µM; with HS 578T breast, 9.28 µM; in the test with K-562 leukemia, 2.62 µM; in the test on M14 melanoma, 15.8 µM. In addition, the GI50 was 5.06 µM in the test on MDA-MB-435 and 4.6 µM in the test with UACC-257 melanoma. In addition, the TGI was determined as 24.6 µM with A498 renal; 19.3 µM in the test on BT-549 breast; 6.54 µM in the test on HOP-92 NSCLC; 26.8 µM in the test with HS 578T breast; 14.8 µM with K-562 leukemia; 29.2 µM in the test on M14 melanoma. Also, the TGI in the test on MDA-MB-435 is 20.4 µM; in the test with UACC-257 melanoma, 17.5 µM.
Regarding `CC[CH2][Sn]([CH2]CC)([O]C(=O)Cc1ccc(F)cc1)[O][Sn]([CH2]CC)([CH2]CC)[O]C(=O)Cc1ccc(F)cc1`, the GI50 is 0.149 µM with A498 renal; 0.256 µM in the test on BT-549 breast; 0.174 µM in the test on HOP-92 NSCLC; 0.0266 µM in the test with K-562 leukemia; 0.237 µM in the test with M14 melanoma; 0.393 µM with MDA-MB-435. For the same compound, the GI50 in the test on NCI-H23 lung is 0.0539 µM; in the test with SK-OV-3 ovarian, 0.774 µM; in the test with UACC-257 melanoma, 0.204 µM. The TGI turned out to be 0.469 µM in the test with A498 renal; 0.92 µM in the test with BT-549 breast; 0.522 µM with HOP-92 NSCLC; 1.81 µM in the test with K-562 leukemia; 0.622 µM in the test on M14 melanoma; 1.61 µM with MDA-MB-435. Further, the figures for the TGI with NCI-H23 lung, with SK-OV-3 ovarian and with UACC-257 melanoma were 0.276 µM, 2.11 µM and 0.869 µM, respectively.
In the case of `Cc1c(-c2nnc(-c3cc(Cl)c(Cl)cc3Cl)o2)nnn1-c1ccnc2c(C(F)(F)F)cccc12`, the GI50 with A498 renal is 30.3 µM; in the test on HOP-92 NSCLC it was 14.4 µM; with HS 578T breast, 25.6 µM; in the test on K-562 leukemia, 33.1 µM; in the test on M14 melanoma, 26.2 µM; in the test on MDA-MB-435, 26.8 µM. Moreover, the GI50 was 26.5 µM with NCI-H23 lung and 24.5 µM in the test with SK-OV-3 ovarian. Also, the TGI is 76.3 µM with A498 renal; 32.2 µM in the test with HOP-92 NSCLC; 65.6 µM in the test with HS 578T breast; above 100 µM in the test with K-562 leukemia; 70.5 µM with M14 melanoma; 75.1 µM with MDA-MB-435. For the same compound, the TGI in the test on NCI-H23 lung stood at 81.1 µM; in the test on SK-OV-3 ovarian, 61.1 µM.
Take `COc1ccc(C(c2cc3c(cc2O)OCO3)N2CCOCC2)cc1OC` (configuration not stated): the TGI amounted to 43.8 µM with BT-549 breast; 32.8 µM in the test with HOP-92 NSCLC; 19.9 µM in the test on HS 578T breast; 69.4 µM in the test on K-562 leukemia; 24.9 µM in the test on M14 melanoma; 23.4 µM with MDA-MB-435. The TGI came out at 15.9 µM in the test on NCI-H23 lung, 28.7 µM in the test with SK-OV-3 ovarian and 34.1 µM in the test on UACC-257 melanoma.
